Measurements taken from EP4818176A1, “TETRACYCLIC DERIVATIVE INHIBITOR, AND PREPARATION METHOD AND USE THEREFOR” (Shanghai Hansoh Biomedical Co., Ltd., priority 2023, dated 2025).
Like-named read-outs stand apart in the source and are kept apart here.

How the values were obtained:
[1] = test system: HCT116 wild-type cells; assay: Cell proliferation inhibition (CellTiter-Glo), HCT116 wild-type cells; format: cell-based; details: Homo sapiens
Text: (§1) Test Example 2: Determination of the inhibitory effect of the compounds of the present invention on the proliferation activity of HCT116 and MTAP Knockout HCT116 cells.
(§2) 1 Experimental objective: The objective of this test example is to determine the inhibitory effect of the compound on the proliferation activity of HCT116 wild-type and HCT116 MTAP knockout cells. 2 Experimental instruments: Centrifuge (Eppendorf 5810R); microplate reader (BioTek Synergy H1 or PerkinElmer Envision); pipette (Eppendorf or Rainin). 3 Experimental reagents: HCT116 and MTAP Knockout HCT116 cells were purchased from Nanjing Cobioer; Cell Titer-Glo was purchased from Promega (Cat. No. G7573); McCoy'5A was purchased from Gibco (Cat. No. 12330031); FBS was purchased from Gibco (Cat. No. 10091148); PBS was purchased from Gibco (Cat. No. 10010023); trypsin was purchased from Gibco (Cat. No. 25200056); cell culture plates were purchased from Corning (Cat. No. 3610). 4 Experimental method: HCT116 and MTAP Knockout HCT116 cells were cultured in McCoy'5A medium containing 10% FBS until an appropriate cell density was reached. The cells were then collected and adjusted to a suitable concentration using complete medium. The cell suspension was seeded into a 96-well plate at 90 µL per well and allowed to adhere overnight in a 37°C, 5% CO2 incubator. Compound solutions of various concentrations were prepared using DMSO and culture medium, with a vehicle control set. The compound solutions were added to the 96-well plate at 10 µL per well, and the plate was incubated in a 37°C, 5% CO2 incubator for an additional 72-240 hours. After incubation, CellTiter-Glo solution was added, and the mixture was mixed uniformly by shaking, followed by incubation in the dark for 10 to 30 minutes. Luminescence was measured using a Synergy H1 or Envision microplate reader. 5 Experimental data processing method: The inhibition rate was calculated using the luminescence signal values, and the concentrations along with the inhibition rates were subjected to non-linear regression curve fitting using Graphpad Prism software to obtain the IC50 values.

[2] = test system: MTAP Knockout HCT116 cells; assay: Cell proliferation inhibition (CellTiter-Glo), HCT116 MTAP knockout cells; format: cell-based; details: for Selectivity: HCT116 IC50 versus MTAP Knockout HCT116 IC50; for IC50: Homo sapiens
Text: as §1, §2

[3] = biological target: T1, PRMT5/MEP50-MTA protein complex (Homo sapiens, UniProt O14744); assay: Thermal shift assay: thermal stability (melting temperature) of PRMT5/MEP50-MTA protein complex; format: binding; details: final compound concentration 8 µM; 2 µM PRMT5/MEP50, 2 µM MTA; Tm minus Tm of DMSO vehicle control
T1 construct: purchased Viva Biotech
Text: Test Example 1: Determination of the ability of the compounds of the present invention to improve the thermal stability (melting temperature) of the PRMT5/MEP50-MTA protein complex.
1 Experimental objective: The objective of this test example is to determine the ability of the compound to improve the thermal stability of the PRMT5/MEP50-MTA protein complex, resulting in an increase in the protein melting temperature. 2 Experimental instruments: Quantitative PCR instrument (Quantstudio6 Flex) was purchased from Life Technologies; pipettes were purchased from Eppendorf or Rainin. 3 Experimental reagents and consumables: PRMT5/MEP50 protein was prepared by Viva Biotech; HEPES was purchased from Thermo Fisher Scientific (Cat. No. 15630080); DTT was purchased from Sigma (Cat. No. 43816-10ml); sodium chloride was purchased from Invitrogen (Cat. No. AM9760G); Protein Thermal Shift™ Dye Kit was purchased from Thermo Fisher Scientific (Cat. No. 4461146); methylthioadenosine (MTA) was purchased from Sigma (Cat. No. D5011). 4 Experimental method: In this experiment, the thermal shift method was used to measure the change in the melting temperature (Tm) of the PRMT5/MEP50-MTA protein complex before and after compound binding, thereby characterising the ability of the compound to improve the thermal stability of the PRMT5/MEP50-MTA protein complex. A solution containing 50 mM HEPES, 10 mM DTT, 2 µM MTA, SYPRO Orange and 250 mM NaCl was prepared as the experimental buffer. Human PRMT5/MEP50 protein was added to a final concentration of 2 µM, and the mixture was incubated at room temperature for 30 minutes. The above reaction mixture was aliquoted into 8-strip PCR tubes at 19.5 µL per tube. Then 0.5 µL of test compound or DMSO was added to each tube, providing a total reaction volume of 20 µL and a final compound concentration of 8 µM. 2.5% DMSO was set as the vehicle control. After incubation at room temperature for 10 minutes, the PCR tubes were placed in a PCR instrument, and the melt curve function was selected to measure the melting temperature of the PRMT5/MEP50-MTA protein complex in different treatment groups (heated from 25°C to 95°C, 0.03°C/s). 5 Experimental data processing method: The experimental data files from the PCR instrument were imported into the thermal shift software to obtain the melting temperature (Tm) for each treatment group.

[4] = Pharmacokinetics in rats (plasma) after oral administration; format: in vivo; details: rat, po, SD rats, p.o. 5 mg/kg; for Cmax: read-out: Cmax; for MRT inf: read-out: MRT0-∞; for Tmax: read-out: tmax
Experimental: Test Example 4: Determination of the pharmacokinetics of the compounds of the present invention in rats (plasma) after oral administration.
1 Study objective: SD rats were used as test animals to study the pharmacokinetic behaviour of the following example compounds in rats (plasma) after oral administration at a dose of 5 mg/kg. 2 Test scheme • 2.1 Test drugs: Vehicle formula: 0.5% CMC-Na (1% Tween 80); the examples of the present invention, made in house. • 2.2 Test animals: 3 SD rats per group, male, purchased from Shanghai Bikai Keyi Biotechnology Co., Ltd., with animal license number (SCXK (Shanghai) 2018-0006, No.20180006037467). • 2.3 Administration: 3 SD rats per group, male, were fasted overnight and then respectively administered PO at a dose of 5 mg/kg and a volume of 10 mL/kg. • 2.4 Sample collection: 0.2 mL of blood was collected from the jugular vein of rats before administration and at 0, 0.25, 0.5, 1, 2, 4, 6, 8 and 24 h after administration, and placed in EDTA-K2test tubes, and the test tubes were centrifuged at 6,000 rpm at 4°C for 6 min to separate the plasma, which was stored at -80°C. The animals were fed 4 h after administration. • 2.5 Sample treatment • 1) 160 uL of acetonitrile was added to 40 uL of plasma sample for precipitation, and after mixing, the mixture was centrifuged at 3,500 × g for 5-20 minutes. • 2) 100 uL of the treated supernatant solution was taken for LC/MS/MS analysis to determine the concentration of the test compounds. • 2.6 Liquid phase analysis • Liquid phase conditions: Shimadzu LC-20AD pump;mass spectrometry conditions: AB Sciex API 4000 mass spectrometer • Chromatographic column: Phenomenex Gemiu 5 um C18 50 × 4.6 mm • Mobile phase: solution A: 0.1% formic acid in water, solution B: methanol • Flow rate: 1.0 mL/min, elution time: 0-4.0 min, with eluents as follows:
Experimental results and analysis: The main pharmacokinetic parameters were calculated using WinNonlin 8.2.

[5] = HCT-116, read-out: MTAP Knockout HCT116 IC50
[6] = HCT-116, HCT116 wild-type cells, proliferation inhibition, Cell Titer-Glo, read-out: HCT116 IC50
[7] = HCT-116, MTAP Knockout HCT116 cells, proliferation inhibition, Cell Titer-Glo, read-out: MTAP Knockout HCT116 IC50

T1 sequence (O14744 whole entry): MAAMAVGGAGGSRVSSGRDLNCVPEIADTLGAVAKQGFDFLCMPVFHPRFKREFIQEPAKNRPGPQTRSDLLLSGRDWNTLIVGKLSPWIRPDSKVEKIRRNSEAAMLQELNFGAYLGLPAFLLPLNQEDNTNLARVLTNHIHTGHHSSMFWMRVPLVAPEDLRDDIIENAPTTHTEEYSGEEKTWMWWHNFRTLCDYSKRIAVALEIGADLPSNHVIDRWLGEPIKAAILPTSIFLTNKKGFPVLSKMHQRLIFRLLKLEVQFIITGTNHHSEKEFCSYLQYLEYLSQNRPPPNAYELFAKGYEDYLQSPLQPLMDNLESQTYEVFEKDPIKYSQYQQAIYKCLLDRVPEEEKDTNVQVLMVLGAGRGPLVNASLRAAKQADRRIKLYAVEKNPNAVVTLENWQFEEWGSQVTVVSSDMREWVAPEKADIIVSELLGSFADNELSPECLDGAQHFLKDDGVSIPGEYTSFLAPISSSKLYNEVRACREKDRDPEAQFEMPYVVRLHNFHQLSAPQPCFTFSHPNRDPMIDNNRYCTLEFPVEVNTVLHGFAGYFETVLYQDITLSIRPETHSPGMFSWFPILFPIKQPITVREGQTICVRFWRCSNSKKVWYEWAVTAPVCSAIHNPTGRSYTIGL
T1 sequence (Q9BQA1 whole entry partner): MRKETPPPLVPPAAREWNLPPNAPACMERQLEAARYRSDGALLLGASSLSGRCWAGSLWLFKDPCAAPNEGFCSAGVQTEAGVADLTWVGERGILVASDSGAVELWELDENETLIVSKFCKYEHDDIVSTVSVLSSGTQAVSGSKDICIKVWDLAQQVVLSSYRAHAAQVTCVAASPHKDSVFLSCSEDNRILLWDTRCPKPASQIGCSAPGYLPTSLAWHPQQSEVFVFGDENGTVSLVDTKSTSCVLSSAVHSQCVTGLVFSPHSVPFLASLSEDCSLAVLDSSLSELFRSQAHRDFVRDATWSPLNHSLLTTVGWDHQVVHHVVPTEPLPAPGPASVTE

SMILES: Nc1nc2cc3c(cc2n2cncc12)C(=O)N(C1COCc2nc(C(F)(F)F)ccc21)CC/C=C\3 (racemic) [Example 311]
- IC50 ([1]; HCT-116, read-out: HCT116 IC50): 1740 nM
- Selectivity [2]: 77
- IC50 [2, 5]: 23 nM
- ΔTm at 8 µM [3]: 11.1 °C

SMILES: CC1OCc2c1c(N)nc1cc3c(cc21)C(=O)N(Cc1ccc(S(F)(F)(F)(F)F)cn1)CCCOC3 (racemic) [Example 437, 4-Amino-3-methyl-12-((5-(pentafluorosulphanyl)pyridin-2-yl)methyl)-3,7,9,10,11,12-hexahydrofuro[3,4-c][1,5]oxazolo[7,8-g]quinolin-13(1H)-one]
- IC50 ([1]; HCT-116, read-out: HCT116 IC50): 191 nM
- Selectivity [2]: 64
- IC50 [2, 5]: 3 nM
- ΔTm at 8 µM [3]: 12.2 °C

SMILES: CC1CCCN(Cc2ccc(C(F)(F)F)cn2)C(=O)c2cc3c(cc2C1)nc(N)c1cncn13 (racemic) [Example 514, 4-Amino-8-methyl-12-((5-(trifluoromethyl)pyridin-2-yl)methyl)-7,8,9,10,11,12-hexahydro-13H-azo[4,3-g]imidazo[1,5-a]quinoxalin-13-one]
- IC50 ([1]; HCT-116, read-out: HCT116 IC50): 807 nM
- Selectivity [2]: 55
- IC50 [2, 5]: 15 nM
- ΔTm at 8 µM [3]: 10.9 °C

SMILES: Nc1nc2cc3c(cc2n2cncc12)C(=O)N(C1COCc2nc(C(F)(F)F)ccc21)CCCC/C=C\3 (single isomer, unassigned) [Example 62-P1]
- ΔTm at 8 µM [3]: 10.8 °C
- AUC(0-inf) ([4]; male): 800 ng·h/mL
- half-life ([4]; male): 2.2 h
- Cmax ([4]; male): 201 ng/mL
- MRT inf ([4]; male): 3.8 h
- Tmax ([4]; male): 1 h

SMILES: Nc1nc2cc3c(cc2n2cncc12)C(=O)N([C@@H]1COCc2nc(C(F)(F)F)ccc21)CC/C=C\3 (single isomer, unassigned) [Example 311-P1]
- ΔTm at 8 µM [3]: 10.9 °C
- AUC(0-inf) ([4]; in vivo): 1780 ng·h/mL
- half-life ([4]; in vivo): 1.8 h
- Cmax ([4]; in vivo): 330 ng/mL
- MRT inf ([4]; in vivo): 3.7 h
- Tmax ([4]; in vivo): 2.3 h

SMILES: CC(c1ccc(C(F)(F)F)cn1)N1CC/C=C\c2cc3nc(N)c4cncn4c3cc2C1=O (single isomer, unassigned) [Example 313-P1]
- IC50 [1, 6]: 1020 nM
- Selectivity [2]: 59
- IC50 [2, 7]: 17 nM
- ΔTm at 8 µM [3]: 11.1 °C

SMILES: Nc1nc2cc3c(cc2n2cncc12)C(=O)N([C@@H]1COc2cc(C(F)(F)F)ccc21)CCC/C=C\3 (stereo in doubt) [Example 164-P1, rel-(R, Z)-4-amino-12-(6-(trifluoromethyl)-2,3-dihydrobenzofuran-3-yl)-9,10,11,12-tetrahydro-13H-azo[4,3-g]imidazo[1,5-a]quinoxalin-13-one]
- IC50 [1, 6]: 556 nM
- Selectivity [2]: 40
- IC50 [2, 7]: 14 nM
- ΔTm at 8 µM [3]: 11.2 °C

SMILES: NC1=NC2C=C3CCCCCN(Cc4ccc(C(F)(F)F)cn4)C(=O)C3=CC2n2cncc21 (stereo not shown) [Example 77, 4-Amino-12-((5-(trifluoromethyl)pyridin-2-yl)methyl)-5a,7,8,9,10,11,12,14a-octahydro-13H-azonino[4,3-g]imidazo[1,5-a]quinoxalin-13-one]
- IC50 [1, 6]: 236 nM
- Selectivity [2]: 20
- IC50 [2, 7]: 12 nM
- ΔTm at 8 µM [3]: 11 °C

SMILES: Nc1nc2cc3c(cc2n2cncc12)C(=O)N(C1COCc2nc(C(F)(F)F)ccc21)CC/C=C\3 (stereo not shown) [Example 157, (Z)-4-Amino-11-(2-(trifluoromethyl)-5,8-dihydro-6H-pyrano[3,4-b]pyridin-5-yl)-10,11-dihydroazocino[4,3-g]imidazo[1,5-a]quinoxalin-12(9H)-one]
- IC50 [1, 6]: 1740 nM
- Selectivity [2]: 77
- IC50 [2, 7]: 23 nM
- ΔTm at 8 µM [3]: 11.1 °C

SMILES: Nc1nc2cc3c(cc2n2cncc12)C(=O)N(C1COCc2nc(C(F)(F)F)ccc21)CCC/C=C\3 (stereo not shown) [Example 158, (Z)-4-Amino-12-(2-(trifluoromethyl)-5,8-dihydro-6H-pyrano[3,4-b]pyridin-5-yl)-9,10,11,12-tetrahydro-13H-azonino[4,3-g]imidazo[1,5-a]quinoxalin-13-one]
- ΔTm at 8 µM [3]: 11.3 °C
- AUC(0-inf) ([4]; male): 712 ng·h/mL
- half-life ([4]; male): 1.3 h
- Cmax ([4]; male): 287 ng/mL
- MRT inf ([4]; male): 2 h
- Tmax ([4]; male): 0.5 h
